Laboratory results taken from patent US20230265099A1, “SIK INHIBITORS AND METHODS OF USE THEREOF” (SOLTEGO, INC., priority 2020, published 2023).
“Also recorded” adds a separate entry of the source.

How the values were obtained:
[1] = system: reconstituted melanized human epidermis (NHEKs and NHEMs-MP melanocytes); experiment: Melanin content from Fontana-Masson stained sections of reconstituted melanized human epidermis; format: cell-based; details: for melanin content (Fontana-Masson stained sections): % relative to DMSO 0.005%
Experimental: Based on the results of dose determination studies, 0.3 μg/ml, 0.01 μg/ml and 0.0033 μg/ml doses of SLT-008 were selected for further application in a culture medium of reconstituted melanized human epidermis. The pigmentation effect studies were carried out on epidermis reconstituted with NHEKs (Normal human epidermal keratinocytes, Lonza 00192906) isolated from foreskin of 3 neonatal Caucasian donors and NHEMs-MP melanocytes.
The tissues were cultured at the air-liquid interface in Epilife medium (Fisher Scientific, MEPI500CA) containing specific supplements (with among others Human Keratinocytes Growth Factors, Fisher Scientific S0015 or S001K) and antibiotics (Gentamycin, Fisher Scientific, 15710049). They were maintained in a humid atmosphere at 37° C. with 5% CO2.
Melanocytes were co-cultured with reconstructed epidermis and cultivated at the air-liquid interface during 14 days in culture medium in a humid atmosphere at 37° C. with CO2 5%. SLT-008 was applied in the culture medium at 3 concentrations, during 10 days, from day 4 to day 14 after placement at the air/liquid interface (n=6), with 5 medium refreshes (at day 7, 8, 9, 10 and 11). In order to allow pigmentation of the epidermis, the concentration in BPE (bovine pituitary extract) in culture medium was adapted during the treatments. DMSO at 0.005%, used for the compounds solubilization was used as reference control condition. IBMX at 150 μM and forskolin at 3.33 μM were used as pro-pigmentation reference compounds to validate the experiment. An additional DMSO control at 0.05% corresponding to the solvent of the reference compounds was added as well in the experiment.
At the end of treatments (day 14), a morphology analysis was performed. The epidermis pigmentation was quantified after solvable extraction and quantified through Fontana Masson staining of histologic sections. 6 μm sections of epidermis embedded in paraffin were prepared and stained with Fontana Masson reagents. Fontana Masson staining specifically stains melanin within the epidermis. In order to visualize the epidermis in addition to the melanin, a counterstaining with hemalum/eosin was performed as well. Tissue section staining was performed in three series with one set for each test compound. Slides with sections of epidermis treated with DMSO at 0.005% were put in each set for Fontana Masson staining in order to compare the effects of the SLT-008.
Melanin deposition on 6 μm paraffin sections of each epidermis was stained by Fontana-Masson reagents (VWR-VWRK641295, VWRK641311; Klinipath-641215). […]
For the melanin quantification, 3 pictures of each epidermis were taken and analyzed by using the Leica QWin3 software. […]
Melanin content was determined from Fontana-Masson stained sections (% relative to DMSO 0.005%). […]

[2] = system: human living skin explants; experiment: Pigmentation activity on human living skin explants with stripping; format: cell-based
Experimental: The pigmentation activity of SLT-008 at two concentrations was evaluated on skin using human living skin explants with stripping.
Human skin explants of an average diameter of 11 mm (±1 mm) were prepared on an abdominoplasty from a person with a III phototype. The explants were kept alive in BEM culture medium (BIO-EC's Explants Medium) at 37° C. in a humid, 5%-CO2 atmosphere. The study was performed on human skin tissue, obtained from surgical residues in accord with the Declaration of Helsinki and the article L.1243-4 of the French Public Health Code.
On day 0, the explants of the batches “S” were stripped 5 times using scotch 3M to remove some stratum corneum layers to facilitate the penetration of the tested products. The excipient and the tested products were applied topically on the basis of 2 μl per explant (2 mg/cm^2) and spread using a small spatula on day 0 (D0, after the stripping), D1, D4, D6 and D8.
The culture medium was half renewed (1 ml per well) on D0, D1, D4, D6 and D8. On D0, D1, D4, D5, D6, D7 and D8, the culture media of the irradiated explants (TUV) were replaced by HBSS (Hank's Balanced Saline Solution; 1 ml per explant). Then, the explants of the “TUV” batch were irradiated using a UV simulator Vibert Lourmat RMX 3W with a dose of 2.25 J/cm2 of UVA corresponding to 0.5 MED (minimal erythemal dose) for a phototype II donor. […]

[3] = system: apoptotic cells in the epidermis of human skin explants; experiment: Stripping-induced apoptosis DNA protection study, TUNEL assay on skin explants; format: cell-based; details: 0.9% in absolute ethanol, after tape stripping, Day 11, significant
From the text: The aim of this study was to perform complementary immunostaining of TUNEL (apoptotic cell marker).
Histological processing: 5-μm-thick sections were made using a Leica RM 2125 Minot-type microtome, and the sections were mounted on Superfrost® histological glass slides. The microscopical observations were realized using a Leica DMLB, an Olympus BX43 or BX63 microscope. Pictures were digitized with a numeric DP72 or DP74 Olympus camera with CellSens storing software.
The staining was semi-quantified by image analysis.
Image analysis method: The images analyses was performed on all the images of the selected batch using CellSens software. Stained surfaces comparisons
The stained surface percentage (Surf %) for the treatment is compared to the untreated condition=>S vs T; SP vs S.

[4] = system: melanized reconstructed human epidermis; experiment: LDH release assay on melanized reconstructed human epidermis; format: cell-based
Experimental: Quantification of lactate dehydrogenase (LDH) release from melanized tissue was performed at mid-treatment and at the end of treatment with the SLT-008 to ensure that the selected doses were not cytotoxic for the melanized reconstructed human epidermis. The release of LDH by the culture model was assessed after 5 and 10 days of treatments with the Cytotoxicity Detection KitPLUS (Roche-04744926001) according to the manufacturer's instructions. Briefly, culture supernatants were collected and mixed with LDH detection reactants in 96-well plates for 30 min before measuring optical density at 490 nm with a reference wavelength of 600 nm using a spectrophotometer (GloMax-Promega). This was performed in triplicates of cultures (n=3). […] The effect of these concentrations was thus studied on the tissue pigmentation (FIG. 5).

SIK3(h) = SIK3(h) (Homo sapiens, UniProt Q9Y2K2); experiment: Salt Induced Kinase inhibition, radiometric [γ-33P]-ATP filter assay, SIK3; format: biochemical
[5] = system: Primary human epidermal keratinocytes (hEK) cocultured with human epidermal melanocytes; experiment: Topical application on keratinocyte/melanocyte coculture skin model, Fontana Masson staining; format: cell-based; details: single topical application
Experimental: Primary human epidermal keratinocytes (hEK) were seeded onto suitable carrier matrices and cocultured with human epidermal melanocytes. SLT-8 was solubilized in PEG/Ethanol/Transcutol® at 0.3 mM, 1 mM and 3 mM and applied topically using a mesh to the surface of the models and removed after 4 hours. Test compounds were applied once daily over a period of 4 days. Untreated models and models treated with the vehicle only served as controls. UV irradiated models were used as positive controls. Fontana Masson staining was conducted to visualize pigmentation effects. Fontana-Masson staining is routinely used to visualize argentaffin substances such as melanin, argentaffin granules and some neurosecretory granules. Melanin is a nonlipid, non-hematogenous pigment. It is a brown-black pigment present normally in the hair, skin, retina, iris, and certain parts of the central nervous system. Argentaffin granules are found in carcinoid tumors. The argentaffin cell granules or melanin stain black. Nuclei stain pink-red. The cytoplasm stains pale pink.

reconstructed epidermis = experiment: Melanin content by chemical (solvable) extraction of reconstructed epidermis; format: cell-based, human; details: applied at 1 and 0.1 μg/ml and more so at 0.3 μg/ml
Experimental: Using similar methods described previously in this Example, the experiments were repeated. At the end of these treatments, tissues (n=3) were removed from their inserts and immerged in a solvable extraction solution (Perkin Elmer-NJTSRN8010060) and heated at 80° C. for 1 h. The optical density of the supernatants was measured at 490 nm with a spectrophotometer (GloMax-Promega) and the melanin content was determined by comparison with a standard curve of synthetic melanin (Sigma-M8631)

[6] = system: reconstituted melanized epidermis; experiment: Hematoxylin/eosin (H/E) morphology of reconstituted melanized epidermis; format: cell-based, human; details: 3 selected doses (0.3, 0.01, 0.0033 μg/ml) in culture medium
Experimental: Next, absence of toxicity of the three doses was evaluated in reconstituted melanized epidermis by hematoxylin/eosin (H/E) staining of histologic sections.
At the end of the treatments with the test compounds, 3 tissues per dose (n=3) were fixed in 4% formaldehyde, dehydrated and paraffin embedded. Sections of 6 μm of epidermis were stained with eosin and hematoxylin (H/E). Slides were mounted with specific medium and examined with a Leica DM2000 photomicroscope coupled to a digital camera (Zeiss).

Chain of SIK3(h) (Q9Y2K2 whole entry): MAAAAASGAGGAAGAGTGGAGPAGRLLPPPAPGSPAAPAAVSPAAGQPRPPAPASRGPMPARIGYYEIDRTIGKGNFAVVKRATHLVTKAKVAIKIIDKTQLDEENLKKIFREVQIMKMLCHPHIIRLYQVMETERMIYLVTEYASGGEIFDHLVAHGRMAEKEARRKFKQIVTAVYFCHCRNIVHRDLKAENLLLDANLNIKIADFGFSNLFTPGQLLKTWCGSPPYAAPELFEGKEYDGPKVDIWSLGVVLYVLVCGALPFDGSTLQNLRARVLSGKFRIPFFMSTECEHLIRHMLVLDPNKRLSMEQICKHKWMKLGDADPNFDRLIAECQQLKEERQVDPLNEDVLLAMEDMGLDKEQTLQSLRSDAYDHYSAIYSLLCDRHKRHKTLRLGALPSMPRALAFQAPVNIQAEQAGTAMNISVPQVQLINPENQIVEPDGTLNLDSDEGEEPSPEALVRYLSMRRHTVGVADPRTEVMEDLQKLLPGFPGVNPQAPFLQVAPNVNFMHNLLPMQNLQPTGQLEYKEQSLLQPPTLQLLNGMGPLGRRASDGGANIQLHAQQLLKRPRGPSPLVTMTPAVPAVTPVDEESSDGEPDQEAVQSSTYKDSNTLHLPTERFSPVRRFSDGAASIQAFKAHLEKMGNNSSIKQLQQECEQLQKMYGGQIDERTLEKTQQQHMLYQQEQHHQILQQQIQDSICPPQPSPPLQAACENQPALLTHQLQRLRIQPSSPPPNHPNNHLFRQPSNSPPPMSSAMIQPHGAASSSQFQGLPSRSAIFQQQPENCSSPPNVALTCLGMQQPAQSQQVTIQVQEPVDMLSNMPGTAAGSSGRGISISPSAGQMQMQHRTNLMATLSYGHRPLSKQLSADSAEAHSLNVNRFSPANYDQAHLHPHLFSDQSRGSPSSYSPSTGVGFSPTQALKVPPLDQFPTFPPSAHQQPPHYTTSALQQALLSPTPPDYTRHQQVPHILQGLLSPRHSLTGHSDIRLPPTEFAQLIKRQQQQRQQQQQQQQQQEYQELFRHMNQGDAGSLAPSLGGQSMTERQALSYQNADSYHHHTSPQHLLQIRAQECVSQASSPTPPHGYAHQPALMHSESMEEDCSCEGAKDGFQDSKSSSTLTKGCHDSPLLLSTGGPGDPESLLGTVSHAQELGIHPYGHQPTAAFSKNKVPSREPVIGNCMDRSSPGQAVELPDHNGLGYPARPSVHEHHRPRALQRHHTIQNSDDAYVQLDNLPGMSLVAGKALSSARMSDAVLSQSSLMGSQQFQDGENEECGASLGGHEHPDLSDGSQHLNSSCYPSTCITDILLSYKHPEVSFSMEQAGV

CC(C)Cn1c(=O)n(C)c(=O)c2[nH]cnc21 [IBMX, reference compound]
pigmentation (Fontana-Masson) ([1]; positive controls: forskolin 3.33 μM, IBMX 150 μM, vs DMSO 0.05%): increased

Cc1cccc(C)c1N1Cc2cnc(Nc3ccc(N4CCN(C)CC4)cc3)nc2N(C23CC4CC(CC(C4)C2)C3)C1=O [SLT-008, 1-((3s,5s,7s)-adamantan-1-yl)-3-(2,6-dimethylphenyl)-7-((4-(4-methylpiperazin-1-yl)phenyl)amino)-3,4-dihydropyrimido[4,5-d]pyrimidin-2(1H)-one]
melanin content (Fontana-Masson stained sections) ([1]; 0.011 μg/ml): 125.6+/−15.4% | pigmentation / melanin content (Fontana-Masson) ([1]; 0.3 μg/ml vs DMSO 0.005%): significantly increased; also recorded: significant increase | melanin content (Fontana-Masson stained sections) ([1]; 0.3 μg/ml): 129+/−5.7% | cell viability ([2]; 0.5% and 0.9% topical, compared to the stripped batch): no modification of cell viability | melanin increase ([2]; 0.9% dose, topical, stripped explants, significant (p<0.1)): 36% | decrease of apoptotic cell numbers (TUNEL stained surface) [3]: 97% | LDH release from tissues ([4]; 0.3 μg/ml, after 10 days of treatment, without reaching the set cytotoxic level): Slight and significant increase | tissue integrity (LDH release) ([4]; application for 10 days): did not induce relevant alteration of the tissue integrity | IC50 (SIK3(h); Estimated IC50 Values, SIK3(h), ATP 45 μM): > 20 nM | IC50 (SIK3(h); SIK3): > 20 nM | melanin pigmentation (Fontana Masson staining) ([5]; 1 mM in PEG/Ethanol/Transcutol): induced melanin pigment dots at the stratum lucidum level | melanin pigmentation (Fontana Masson staining) ([5]; 3 mM in PEG/Ethanol/Transcutol): induced melanin pigment dots at the stratum lucidum level | melanin transfer to keratinocytes and nuclear capping ([5]; 3 mM): induced melanin transfer to keratinocytes and nuclear capping was observed | melanin content by chemical extraction (reconstructed epidermis): increased, with a dose effect | morphologic alteration (H/E staining) [6]: no morphologic alteration
